# Experiments:
# human SGLT1 = target: T1, human SGLT1 (Homo sapiens, UniProt P13866); assay: Sodium-dependent 14C-AMG uptake assay in CHO-K1 cells expressing human SGLT1; format: cell-based; settings: n=5
# T1 construct: expressed in transfected cells
# T1 sequence (P13866 1-664): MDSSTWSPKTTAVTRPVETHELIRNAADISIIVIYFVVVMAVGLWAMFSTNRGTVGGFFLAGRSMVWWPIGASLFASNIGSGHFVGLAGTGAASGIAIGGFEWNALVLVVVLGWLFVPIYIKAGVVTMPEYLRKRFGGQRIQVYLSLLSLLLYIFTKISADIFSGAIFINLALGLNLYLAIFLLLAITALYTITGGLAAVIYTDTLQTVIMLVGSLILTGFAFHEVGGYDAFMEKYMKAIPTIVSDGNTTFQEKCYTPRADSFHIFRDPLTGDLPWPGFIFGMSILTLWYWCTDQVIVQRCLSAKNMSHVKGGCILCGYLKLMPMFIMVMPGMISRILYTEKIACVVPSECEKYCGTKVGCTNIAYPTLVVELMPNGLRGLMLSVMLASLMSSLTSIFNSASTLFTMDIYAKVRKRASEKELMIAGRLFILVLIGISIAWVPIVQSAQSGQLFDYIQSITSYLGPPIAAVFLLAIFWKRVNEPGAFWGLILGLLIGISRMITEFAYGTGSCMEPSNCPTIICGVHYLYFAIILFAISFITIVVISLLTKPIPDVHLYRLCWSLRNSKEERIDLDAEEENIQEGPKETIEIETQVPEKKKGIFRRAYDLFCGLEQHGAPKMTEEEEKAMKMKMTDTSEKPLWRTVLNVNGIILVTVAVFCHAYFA
# Text: (§1) The cDNA encoding human SGLT1 (slc5al, NM_000343) and mouse SGLT1 (slc5al, NM_019810.4) are purchased from Openbiosystems, Invitrogen and Openbiosystems, respectively. The cDNA is cloned into pcDNA3.1+ for mammalian expression and is stably transfected into Chinese hamster ovary (CHO)-K1 cells using standard mammalian transfection procedures. An SGLT-expressing sub-clone of each over-expressing cell line is selected based on resistance to neomycin (Geneticin, Invitrogen) and activity in the ^14C-α-methyl-D-glucopyranoside (^14C-AMG) uptake assay (see below). Stable SGLT-expressing cells are maintained using standard cell culture techniques.
# (§2) The SGLT activity is measured as sodium-dependent ^14C-AMG uptake in the above cell lines described as follows. One hundred μL of culture medium containing 30,000 cells are seeded to each well of a 96-well BioCoat poly-D-lysine plate (Becton Dickson) and cultured at 37° C. overnight. The culture medium is aspirated and cells are washed twice with 200 μL of Reaction Buffer (140 mM NaCl, 2 mM KCl, 1 mM CaCl2, MgCl2, and 14 mM N-2-hydroethylpiperrazine-N′-2-ethanesulfonic acid (Hepes), pH 7.5). The excess buffer is tapped out onto paper towels. Thirty-five μL of Reaction Buffer are added to each well. […] After mixing, the scintillation signal in the plate is counted in a MicroBeta (PerkinElmer). […]
# mouse SGLT1 = target: T2, mouse SGLT1 (Mus musculus, UniProt Q8C3K6); assay: Sodium-dependent 14C-AMG uptake assay in CHO-K1 cells expressing mouse SGLT1; format: cell-based; settings: n=5
# T2 construct: expressed in transfected cells
# T2 sequence (Q8C3K6 1-665): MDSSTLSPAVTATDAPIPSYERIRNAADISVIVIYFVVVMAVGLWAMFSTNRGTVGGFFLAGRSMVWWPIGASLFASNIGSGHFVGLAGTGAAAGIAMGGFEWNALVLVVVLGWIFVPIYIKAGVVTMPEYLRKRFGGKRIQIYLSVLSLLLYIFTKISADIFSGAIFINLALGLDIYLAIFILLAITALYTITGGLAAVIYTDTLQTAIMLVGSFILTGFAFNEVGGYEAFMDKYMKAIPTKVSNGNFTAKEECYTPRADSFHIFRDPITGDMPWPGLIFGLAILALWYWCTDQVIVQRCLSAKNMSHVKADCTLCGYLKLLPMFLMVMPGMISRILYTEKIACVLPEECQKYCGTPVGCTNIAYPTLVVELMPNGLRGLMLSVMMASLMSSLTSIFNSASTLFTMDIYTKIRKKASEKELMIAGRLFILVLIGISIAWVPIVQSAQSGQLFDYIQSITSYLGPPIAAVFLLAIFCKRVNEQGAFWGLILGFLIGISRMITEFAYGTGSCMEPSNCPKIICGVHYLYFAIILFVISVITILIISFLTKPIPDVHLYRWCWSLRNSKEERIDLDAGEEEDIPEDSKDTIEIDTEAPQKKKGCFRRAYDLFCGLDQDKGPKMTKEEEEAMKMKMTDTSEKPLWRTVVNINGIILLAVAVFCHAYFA
# Text: as §1, §2
# C57Bl/6 mice = assay: Glucose lowering effects in oral glucose tolerance test (OGTT); format: in vivo, mouse; design: Baseline Adjusted AUC (glucose): unit not given here; settings: for Glucose 20 Minute / Glucose 40 Minute / Glucose 60 Minute / Baseline Adjusted AUC (glucose) / Glucose Cmax / Glucose Tmax / Glucose 0 Minute: 10 mg/kg oral, Mean ± SEM; for Glucose 20 Minute: 20 min after 3 g/kg dextrose; for Glucose 40 Minute: 40 min after 3 g/kg dextrose; for Glucose 60 Minute: 60 min after 3 g/kg dextrose; for Glucose 0 Minute: baseline before 3 g/kg dextrose
# Experimental: The test compound is formulated by adding a vehicle of 1% hydroxyethylcellulose, 0.25% Tween® 80 w/antifoam 0.05% to preweighed test compound to make a 1 mg/ml solution. The mixture is probe sonicated for approximately 1 minute. A stir bar is added, and the resulting suspension is stirred continuously throughout dosing.
# The first set of mice receiving an OGTT 18 hours after compound administration, the second 8 hours after compound administration. The first set of animals are weighed and body weights used to determine study groups (n=5), within a working range of 26-30 g. After grouping, the mice are orally gavaged with 10 ml/kg of test compound preparation or vehicle, thirty seconds apart. […] Both sets, 18 and 8 hour OGTT, of mice are then fasted overnight by removing access to food, late afternoon before test day. The following morning, the 8 hour OGTT mice are weighed and bled (via tail snip) for glucose. Study groups (n=5) are determine using fasted glucose values, within a working range of 80-100 mg/dl. After grouping the mice are orally gavaged with compound, thirty seconds apart. These mice then receive an OGTT 8 hours after compound administration.
# At eight and eighteen hours after each respective compound treatment is started, a baseline blood sample is taken for measuring glucose (from the first animal). The animal is then immediately given an oral dose of 50% dextrose (Hospira®) at 3 g/kg. Blood samples are taken for glucose, exactly thirty seconds apart, by tail vein so that blood is collected in each animal at 20, 40, and 60 minutes after the dextrose dose.
structure (smiles),measurement,setting,value
"Cc1cccc2c1c(Cc1ccc(OCCCN3CCCC4(CCN(C(=O)CNC(=O)NCC(C)C)CC4)C3)cc1)cn2[C@@H]1O[C@H](CO)[C@@H](O)[C@H](O)[C@H]1O [Example 1, 1-isobutyl-3-[2-[4-[3-[4-[[4-methyl-1-[(2R,3R,4S,5S,6R)-3,4,5-trihydroxy-6-(hydroxymethyl)tetrahydropyran-2-yl]indol-3-yl]methyl]phenoxy]propyl]-4,9-diazaspiro[5.5]undecan-9-yl]-2-oxo-ethyl]urea]",IC50,human SGLT1,35.2 ± 14.1 nM
same,IC50,mouse SGLT1,14.9 ± 10.4 nM
same,Glucose 20 Minute,C57Bl/6 mice; OGTT 8 hrs post dose,114 ± 3.36 mg/dL
same,Glucose 40 Minute,C57Bl/6 mice; OGTT 8 hrs post dose,131 ± 6.81 mg/dL
same,Glucose 60 Minute,C57Bl/6 mice; OGTT 8 hrs post dose,125.8 ± 7.52 mg/dL
same,Baseline Adjusted AUC (glucose),C57Bl/6 mice; OGTT 8 hrs post dose,2370 ± 315
same,Glucose Cmax,C57Bl/6 mice; OGTT 8 hrs post dose,132.9 ± 6.68 mg/dL
same,Glucose Tmax,C57Bl/6 mice; OGTT 8 hrs post dose,44 ± 7.48 min
same,Glucose 0 Minute,C57Bl/6 mice; OGTT 8 hrs post dose,75.8 ± 2.48 mg/dL
same,Glucose 20 Minute,C57Bl/6 mice; OGTT 18 hrs post dose,121.4 ± 5.16 mg/dL
same,Glucose 40 Minute,C57Bl/6 mice; OGTT 18 hrs post dose,127 ± 9.78 mg/dL
same,Glucose 60 Minute,C57Bl/6 mice; OGTT 18 hrs post dose,125 ± 7.27 mg/dL
same,Baseline Adjusted AUC (glucose),C57Bl/6 mice; OGTT 18 hrs post dose,2258 ± 252
same,Glucose Cmax,C57Bl/6 mice; OGTT 18 hrs post dose,134.2 ± 6.72 mg/dL
same,Glucose Tmax,C57Bl/6 mice; OGTT 18 hrs post dose,44 ± 7.48 min
same,Glucose 0 Minute,C57Bl/6 mice; OGTT 18 hrs post dose,79.2 ± 4.51 mg/dL
same,glucose excursion after oral bolus of 50% dextrose,"C57Bl/6 mice; normal glycemic C57Bl/6 mouse, eight or eighteen hours after administration",decrease

# Reference: patent US9145437B2, “Urea compounds” (Eli Lilly and Company, priority 2013, dated 2015)
